Experiment: Primate administration: plasma hPTH by radioimmunoassay after oral capsule
Format: in vivo
Details: Table 2 versus Table 1, Rhesus monkey
Experimental: The capsules prepared in Example 1 are administered to Rhesus monkeys as follows: four monkeys in a group are each dosed with one capsule prepared as in Example 1 as follows:
The Rhesus monkeys fast overnight prior to dosing and are restrained in chairs fully conscious, for the duration of the study period. The capsules are orally administered via a gavage tube followed by 10 ml of water.
Blood samples are collected at 0, 0.25, 0.5, 0.75, 1, 1.5, 2, 3, 4, 5, and 6 hours after administration. Plasma hPTH levels are determined by radioimmunoassay. The primate plasma PTH results from each group of monkeys are averaged and the maximum mean plasma calculated.

SMILES: O=C(O)CCCCCCCNC(=O)c1cc(Cl)ccc1O [Capsule 5-CNAC, N-(5-chlorosalicyloyl)-8-aminocaprylic acid]
- effect of carrier on oral delivery of the hPTH fragment: significantly facilitates the oral delivery of the hPTH fragment

— patent US9272040B2, “5-CNAC as oral delivery agent for parathyroid hormone fragments” (Novartis AG, priority 2001, dated 2016)
